# Reference: patent publication US20250171438A1 (Agios Pharmaceuticals, Inc., priority 2022, published 2025)
# Target: T1, human PAH with the R408W mutation (Homo sapiens, UniProt P00439, R408W)
# T1 construct: expressed in transfected cells
# T1 sequence (P00439 1-452 R408W): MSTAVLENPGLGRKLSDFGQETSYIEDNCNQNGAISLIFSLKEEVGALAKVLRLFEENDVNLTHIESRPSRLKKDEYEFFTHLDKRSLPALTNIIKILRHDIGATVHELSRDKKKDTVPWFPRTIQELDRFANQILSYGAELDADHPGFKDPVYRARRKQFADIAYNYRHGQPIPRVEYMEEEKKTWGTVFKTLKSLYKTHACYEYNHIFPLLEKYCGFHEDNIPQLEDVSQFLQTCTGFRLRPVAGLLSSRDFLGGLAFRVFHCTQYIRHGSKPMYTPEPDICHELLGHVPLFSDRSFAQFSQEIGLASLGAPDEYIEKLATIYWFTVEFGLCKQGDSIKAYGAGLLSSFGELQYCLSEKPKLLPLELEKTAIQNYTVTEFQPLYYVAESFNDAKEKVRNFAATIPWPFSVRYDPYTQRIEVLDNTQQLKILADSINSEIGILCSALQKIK
# Experiment: Cell Based Phenylalanine Flux Assay
# Details: A375 cells expressing human R408W PAH; 24 hrs compound incubation; 13C-Tyrosine by LC-MS; average where tested multiple times; read-out: AC50
row,SMILES,AC50
1,"O=C(c1nnc(-c2cnn(CC(F)(F)F)c2)o1)N1CCc2[nH]cnc2[C@@H]1c1nc2c(F)cccc2s1 [Example 1843, (R)-(4-(4-fluorobenzo[d]thiazol-2-yl)-6,7-dihydro-1H-imidazo[4,5-c]pyridin-5(4H)-yl)(5-(1-(2,2,2-trifluoroethyl)-1H-pyrazol-4-yl)-1,3,4-oxadiazol-2-yl)methanone]",1 to 5 µM
2,"O=C(c1nnc(-c2cnn(CC(F)(F)F)c2)o1)N1CCc2[nH]cnc2[C@H]1c1nc2c(F)cccc2s1 [Example 1844, (S)-(4-(4-fluorobenzo[d]thiazol-2-yl)-6,7-dihydro-1H-imidazo[4,5-c]pyridin-5(4H)-yl)(5-(1-(2,2,2-trifluoroethyl)-1H-pyrazol-4-yl)-1,3,4-oxadiazol-2-yl)methanone]",0.5 to 1 µM
3,Cc1c(-c2nnc(C(=O)N3CCc4[nH]cnc4[C@H]3c3nc4ccccc4s3)o2)cnn1C [Example 1845],< 0.5 µM
4,"Cc1c(-c2nnc(C(=O)N3CCc4[nH]cnc4[C@@H]3c3nc4ccccc4s3)o2)cnn1C [Example 1846, (R)-(4-(benzo[d]thiazol-2-yl)-6,7-dihydro-1H-imidazo[4,5-c]pyridin-5(4H)-yl)(5-(1,5-dimethyl-1H-pyrazol-4-yl)-1,3,4-oxadiazol-2-yl)methanone]",1 to 5 µM
5,"O=C(c1nnc(-c2ccc(C(F)(F)F)cn2)o1)N1CCc2[nH]cnc2[C@@H]1c1nc2c(F)cccc2s1 [Example 1847, (R)-(4-(4-fluorobenzo[d]thiazol-2-yl)-6,7-dihydro-1H-imidazo[4,5-c]pyridin-5(4H)-yl)(5-(5-(trifluoromethyl)pyridin-2-yl)-1,3,4-oxadiazol-2-yl)methanone]",1 to 5 µM
6,"O=C(c1nnc(-c2ccc(C(F)(F)F)cn2)o1)N1CCc2[nH]cnc2[C@H]1c1nc2c(F)cccc2s1 [Example 1848, (S)-(4-(4-fluorobenzo[d]thiazol-2-yl)-6,7-dihydro-1H-imidazo[4,5-c]pyridin-5(4H)-yl)(5-(5-(trifluoromethyl)pyridin-2-yl)-1,3,4-oxadiazol-2-yl)methanone]",1 to 5 µM
7,"O=C(c1oc(-c2ccccn2)nc1Br)N1CCc2[nH]cnc2[C@@H]1c1nc2ccccc2s1 [Example 1849, (R)-(4-(benzo[d]thiazol-2-yl)-6,7-dihydro-1H-imidazo[4,5-c]pyridin-5(4H)-yl)(4-bromo-2-(pyridin-2-yl)oxazol-5-yl)methanone]",1 to 5 µM
8,O=C(c1oc(-c2ccccn2)nc1Br)N1CCc2[nH]cnc2[C@H]1c1nc2ccccc2s1 [Example 1850],< 0.5 µM
9,Cn1nc(C2CCC2)cc1C(=O)N1CCc2[nH]cnc2[C@H]1c1nc2c(F)cccc2s1 [Example 1853],1 to 5 µM
10,"Cn1nc(C2CCC2)cc1C(=O)N1CCc2[nH]cnc2[C@@H]1c1nc2c(F)cccc2s1 [Example 1854, (R)-(3-cyclobutyl-1-methyl-1H-pyrazol-5-yl)(4-(4-fluorobenzo[d]thiazol-2-yl)-6,7-dihydro-1H-imidazo[4,5-c]pyridin-5(4H)-yl)methanone]",1 to 5 µM
11,O=C(c1ccnn1-c1ccccn1)N1CCc2[nH]cnc2[C@H]1c1nc2ccccc2s1 [Example 1855],< 0.5 µM
12,O=C(c1nnc(-c2cn[nH]c2)o1)N1CCc2[nH]cnc2[C@H]1c1nc2c(F)cccc2s1 [Example 1863],0.5 to 1 µM
13,"O=C(c1nnc(-c2cn[nH]c2)o1)N1CCc2[nH]cnc2[C@@H]1c1nc2c(F)cccc2s1 [Example 1864, (R)-(5-(1H-pyrazol-4-yl)-1,3,4-oxadiazol-2-yl)(4-(4-fluorobenzo[d]thiazol-2-yl)-6,7-dihydro-1H-imidazo[4,5-c]pyridin-5(4H)-yl)methanone]",1 to 5 µM
14,"COCc1ccc2c(C(=O)N3CCc4[nH]cnc4[C@@H]3c3nc4ccccc4s3)c(C#N)nn2c1 [Example 1865, (R)-3-(4-(benzo[d]thiazol-2-yl)-4,5,6,7-tetrahydro-1H-imidazo[4,5-c]pyridine-5-carbonyl)-6-(methoxymethyl)pyrazolo[1,5-a]pyridine-2-carbonitrile]",> 5 µM
15,"COCc1ccc2c(C(=O)N3CCc4[nH]cnc4[C@H]3c3nc4ccccc4s3)c(C#N)nn2c1 [Example 1866, (S)-3-(4-(benzo[d]thiazol-2-yl)-4,5,6,7-tetrahydro-1H-imidazo[4,5-c]pyridine-5-carbonyl)-6-(methoxymethyl)pyrazolo[1,5-a]pyridine-2-carbonitrile]",< 0.5 µM
16,"COCCc1ccc2c(C(=O)N3CCc4[nH]cnc4[C@H]3c3nc4ccccc4s3)c(C#N)nn2c1 [Example 1867, (S)-3-(4-(benzo[d]thiazol-2-yl)-4,5,6,7-tetrahydro-1H-imidazo[4,5-c]pyridine-5-carbonyl)-6-(2-methoxyethyl)pyrazolo[1,5-a]pyridine-2-carbonitrile]",< 0.5 µM
17,"COCCc1ccc2c(C(=O)N3CCc4[nH]cnc4[C@@H]3c3nc4ccccc4s3)c(C#N)nn2c1 [Example 1868, (R)-3-(4-(benzo[d]thiazol-2-yl)-4,5,6,7-tetrahydro-1H-imidazo[4,5-c]pyridine-5-carbonyl)-6-(2-methoxyethyl)pyrazolo[1,5-a]pyridine-2-carbonitrile]",1 to 5 µM
18,O=C(c1nnc(-c2cnn(CC(F)F)c2)o1)N1CCc2[nH]cnc2[C@H]1c1nc2ccccc2s1 [Example 1871],< 0.5 µM
19,"O=C(c1nnc(-c2ccc(F)cc2F)o1)N1CCc2[nH]cnc2[C@@H]1c1nc2c(F)cccc2s1 [Example 1875, (R)-(5-(2,4-difluorophenyl)-1,3,4-oxadiazol-2-yl)(4-(4-fluorobenzo[d]thiazol-2-yl)-6,7-dihydro-1H-imidazo[4,5-c]pyridin-5(4H)-yl)methanone]",1 to 5 µM
20,"O=C(c1nnc(-c2ccc(F)cc2F)o1)N1CCc2[nH]cnc2[C@H]1c1nc2c(F)cccc2s1 [Example 1876, (S)-(5-(2,4-difluorophenyl)-1,3,4-oxadiazol-2-yl)(4-(4-fluorobenzo[d]thiazol-2-yl)-6,7-dihydro-1H-imidazo[4,5-c]pyridin-5(4H)-yl)methanone]",< 0.5 µM
21,"O=C(c1nnc(-c2ccc(F)c(F)c2)o1)N1CCc2[nH]cnc2[C@@H]1c1nc2c(F)cccc2s1 [Example 1877, (R)-(5-(3,4-difluorophenyl)-1,3,4-oxadiazol-2-yl)(4-(4-fluorobenzo[d]thiazol-2-yl)-6,7-dihydro-1H-imidazo[4,5-c]pyridin-5(4H)-yl)methanone]",1 to 5 µM

# Results, then the compound that gave them:
row,AC50,SMILES
1,< 0.5 µM,CC1(c2nc(C(F)F)c(C(=O)N3CCc4[nH]cnc4[C@H]3c3nc4ccccc4s3)o2)CC1 [Example 1851]
2,< 0.5 µM,"CC1(c2nc(C(F)F)c(C(=O)N3CCc4[nH]cnc4[C@@H]3c3nc4ccccc4s3)o2)CC1 [Example 1852, (R)-(4-(benzo[d]thiazol-2-yl)-6,7-dihydro-1H-imidazo[4,5-c]pyridin-5(4H)-yl)(4-(difluoromethyl)-2-(1-methylcyclopropyl)oxazol-5-yl)methanone]"
3,< 0.5 µM,O=C(c1cn[nH]c1C(F)F)N1CCc2[nH]cnc2[C@H]1c1nc2ccccc2s1 [Example 1857]
4,1 to 5 µM,"O=C(c1cn[nH]c1C(F)F)N1CCc2[nH]cnc2[C@@H]1c1nc2ccccc2s1 [Example 1858, (R)-(4-(benzo[d]thiazol-2-yl)-6,7-dihydro-1H-imidazo[4,5-c]pyridin-5(4H)-yl)(5-(difluoromethyl)-1H-pyrazol-4-yl)methanone]"
5,< 0.5 µM,O=C(c1cn[nH]c1C(F)F)N1CCc2[nH]cnc2[C@H]1c1nc2c(F)cccc2s1 [Example 1859]
6,1 to 5 µM,"O=C(c1cn[nH]c1C(F)F)N1CCc2[nH]cnc2[C@@H]1c1nc2c(F)cccc2s1 [Example 1860, (R)-(5-(difluoromethyl)-1H-pyrazol-4-yl)(4-(4-fluorobenzo[d]thiazol-2-yl)-6,7-dihydro-1H-imidazo[4,5-c]pyridin-5(4H)-yl)methanone]"
7,1 to 5 µM,"O=C(c1cn[nH]c1Cl)N1CCc2[nH]cnc2[C@@H]1c1nc2c(F)cccc2s1 [Example 1861, (R)-(5-chloro-1H-pyrazol-4-yl)(4-(4-fluorobenzo[d]thiazol-2-yl)-6,7-dihydro-1H-imidazo[4,5-c]pyridin-5(4H)-yl)methanone]"
8,0.5 to 1 µM,O=C(c1cn[nH]c1Cl)N1CCc2[nH]cnc2[C@H]1c1nc2c(F)cccc2s1 [Example 1862]
9,> 5 µM,"Cn1cc(C(=O)N2CCc3[nH]cnc3[C@@H]2c2nc3ccccc3s2)c(Cl)n1 [Example 1869, (R)-(4-(benzo[d]thiazol-2-yl)-6,7-dihydro-1H-imidazo[4,5-c]pyridin-5(4H)-yl)(3-chloro-1-methyl-1H-pyrazol-4-yl)methanone]"
10,< 0.5 µM,Cn1cc(C(=O)N2CCc3[nH]cnc3[C@H]2c2nc3ccccc3s2)c(Cl)n1 [Example 1870]
11,1 to 5 µM,"O=C(c1nnc(-c2cnn(CC(F)F)c2)o1)N1CCc2[nH]cnc2[C@@H]1c1nc2ccccc2s1 [Example 1872, (R)-(4-(benzo[d]thiazol-2-yl)-6,7-dihydro-1H-imidazo[4,5-c]pyridin-5(4H)-yl)(5-(1-(2,2-difluoroethyl)-1H-pyrazol-4-yl)-1,3,4-oxadiazol-2-yl)methanone]"
12,< 0.5 µM,O=C(c1nnc(-c2ccn(C(F)F)n2)o1)N1CCc2[nH]cnc2[C@H]1c1nc2ccccc2s1 [Example 1873]
13,1 to 5 µM,"O=C(c1nnc(-c2ccn(C(F)F)n2)o1)N1CCc2[nH]cnc2[C@@H]1c1nc2ccccc2s1 [Example 1874, (R)-(4-(benzo[d]thiazol-2-yl)-6,7-dihydro-1H-imidazo[4,5-c]pyridin-5(4H)-yl)(5-(1-(difluoromethyl)-1H-pyrazol-3-yl)-1,3,4-oxadiazol-2-yl)methanone]"
